These results are taken from US11242344B2, “(4-hydroxypyrrolidin-2-yl)-heterocyclic compounds and methods of use thereof” (Genentech, Inc., priority 2017, dated 2022).

In one assay the target is VHL Elongin B/C complex (Homo sapiens (Human), UniProt P40337). Briefly: Fluorescence Polarization (FP) VHL Binding Assay. Particulars: for IC50: VHL binding, FP assay, geometric mean where more than one measurement. As for the experimental part: The binding of test compounds to the VHL Elongin B/C complex was measured using a fluorescence polarization tracer competition assay. The VHL/Elongin B/C protein complex used in the assay was generated as follows. The coding region for amino acids E55-D213 of human VHL with N-terminal His6 tag with a TEV-protease cleavage site was co-expressed with Elongin B (residues M1-Q118) and Elongin C (Residues M17-C112) in E. coli. […] The purified VHL/Elongin B/C complex was dialyzed into formulation buffer: 20 mM Bis-Tris pH7.0, 150 mM NaCl, 1 mM DTT. A VHL fluorescence polarization probe (prepared in Example 91), consisted of a VHL ligand coupled to carboxytetramethylrhodamine (TAMRA); […] Compounds were prepared as a serial dilution in DMSO at a concentration 25-fold higher than the final desired concentration and acoustically dispensed (400 nl) into a ProxiPlate-384 Plus F, Black 384-shallow well Microplate (Part Number 6008260). DMSO was dispensed into wells designated for “VHL control” (without compound) wells. The “Assay Buffer” consisted of 50 mM Tris pH 8.0, 120 mM NaCl, 0.005% Nonidet P-40, and 1% DMSO (v/v). Assay Buffer containing […] VHL Elongin B/C complex was prepared and 5 μl dispensed using a BioRapTR (Beckman Coulter) into each well of the assay plate. Assay Buffer was also dispensed into “no VHL control” wells using the same method. A “pre-assay” fluorescence measurement was made using an Infinite® M1000 (Tecan) plate reader (Excitation 530 nm, Emission 574 nm, Bandwidth 10 nm). Assay Buffer containing 3.34 nM of the VHL FP probe was prepared in Assay Buffer and 5 μl dispensed into each well of the assay plate using a BioRapTR (Beckman Coulter). The final VHL/Elongin B/C protein concentration is 2.64 nM and the final probe concentration is 1.67 nM. Assay plates were briefly centrifuged and incubated for 1 hour at room temperature. “Post-assay” fluorescence polarization measurements were made as described for the “pre-assay” fluorescence measurement. Fluorescence polarization was calculated for each sample; taking into account the “pre-assay” fluorescence measurements and subtracting the fluorescence signal of the compound/VHL only (“pre-assay”) measurements from the “post-assay” fluorescence polarization measurements, for each plane of polarization. The data were analyzed using Genedata Screener software and normalized to the “no VHL control” and “VHL control” (without compound). IC50 values were calculated using a four parameter curve fit (Robust method).
A general note: In fluorescence polarisation assays a small probe gives low polarisation when free and higher when bound to something large.

The target in assay [1] is VHL co-expressed with Elongins B and C (Homo sapiens (Human), UniProt P40337). Briefly: Surface Plasmon Resonance Assay. The class given is binding. Particulars: SPR measured VHL affinity; geometric mean where more than one measurement. As for the experimental part: Using a Biacore T200, […] tagged VHL co-expressed with Elongins B and C were immobilized to a Biacore SA chip in running buffer without DMSO. Compounds were tested individually at varying concentrations in running buffer (50 mM HEPES pH 7.2, 150 mM NaCl, 0.5 mM TCEP, 0.001% Tween 20, 0.2% PEG3350, 2% DMSO) at 20° C. Sensorgrams were run in order from low to high concentration using a flow rate of 80 μL/min. Association and disassociation times were varied depending on the estimated potency of the compound tested. […] Galdeano et al, J. Med. Chem. 2014, 57, 8657-8663, herein incorporated by reference) which retained greater than 75% of the activity over the course of the run. Analysis of the binding curves and determination of the kinetic parameters were done using evaluation software (Version 2.0, Biacore).
(In general: Surface plasmon resonance follows binding to a sensor surface in real time, without labels.)

Each structure is given as a SMILES string.

Chain of VHL Elongin B/C complex (P40337 whole entry, looked up, the tested form may be a part): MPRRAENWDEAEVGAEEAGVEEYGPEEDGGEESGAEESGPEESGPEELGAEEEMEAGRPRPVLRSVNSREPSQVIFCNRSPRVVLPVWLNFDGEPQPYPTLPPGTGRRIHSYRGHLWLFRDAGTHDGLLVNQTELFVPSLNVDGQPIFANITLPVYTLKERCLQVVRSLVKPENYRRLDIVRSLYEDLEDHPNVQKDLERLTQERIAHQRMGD
Chain of VHL Elongin B/C complex (Q15370 whole entry partner, looked up, the tested form may be a part): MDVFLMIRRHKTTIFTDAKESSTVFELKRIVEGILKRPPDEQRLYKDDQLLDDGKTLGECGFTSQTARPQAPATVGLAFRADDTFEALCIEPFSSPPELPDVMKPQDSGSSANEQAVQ
Chain of VHL Elongin B/C complex (Q15369 whole entry partner, looked up, the tested form may be a part): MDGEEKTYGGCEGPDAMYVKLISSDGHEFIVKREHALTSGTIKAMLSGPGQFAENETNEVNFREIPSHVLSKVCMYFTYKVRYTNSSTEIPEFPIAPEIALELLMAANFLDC
Chain of VHL co-expressed with Elongins B and C (P40337 whole entry, looked up): as the sequence (P40337 whole entry, looked up, the tested form may be a part) above
Chain of VHL co-expressed with Elongins B and C (Q15370 whole entry partner, looked up): as the sequence (Q15370 whole entry partner, looked up, the tested form may be a part) above
Chain of VHL co-expressed with Elongins B and C (Q15369 whole entry partner, looked up): as the sequence (Q15369 whole entry partner, looked up, the tested form may be a part) above

`CC(=O)N[C@H](C(=O)N1C[C@H](O)CC1C1=NC(=O)C(C)(c2ccc(Br)cc2)N1)C(C)(C)C` (single isomer, unassigned) [Example 101.1]: the IC50 (in general, the midpoint of a concentration-inhibition curve) on VHL Elongin B/C complex was more than 200 µM. In assay [1], the Kd (usually the free concentration of one partner at which half of the binding sites on the other are occupied at equilibrium, for simple one-to-one binding) was more than 500 µM.

On to `CC(=O)N[C@H](C(=O)N1C[C@H](O)CC1C1=NC(=O)C(C)(c2ccc(Br)cc2)N1)C(C)(C)C` (single isomer, unassigned) [Example 101.2], for which the IC50 at VHL Elongin B/C complex was more than 200 µM. In assay [1], the affinity, expressed as Kd, was 41.6 µM.

Consider `CC(=O)N[C@H](C(=O)N1C[C@H](O)CC1C1=NC(=O)C(C)(c2ccc(Br)cc2)N1)C(C)(C)C` (single isomer, unassigned) [Example 101.3], for which the half-maximal inhibitory concentration (IC50) at VHL Elongin B/C complex is more than 200 µM. In assay [1], this molecule returned a Kd of 332 µM.

Molecule `CC(=O)N[C@H](C(=O)N1C[C@H](O)CC1C1=NC(=O)C(C)(c2ccc(Br)cc2)N1)C(C)(C)C` (single isomer, unassigned) [Example 101.4] had an IC50 on VHL Elongin B/C complex of 108 µM. In assay [1], this molecule gave a Kd of 26.7 µM.

In turn, `CC(=O)N[C@H](C(=O)N1C[C@H](O)CC1C1=NC(=O)C(C)(c2ccc(-c3scnc3C)cc2)N1)C(C)(C)C` (single isomer, unassigned) [Example 102.1] registered an IC50 at VHL Elongin B/C complex of 6.17 µM. Also, the Kd in assay [1] came to 1.96 µM.

At VHL Elongin B/C complex, `CC(=O)N[C@H](C(=O)N1C[C@H](O)CC1C1=NC(=O)C(C)(c2ccc(-c3scnc3C)cc2)N1)C(C)(C)C` (single isomer, unassigned) [Example 102.2] showed an IC50 of 93.1 µM. This molecule also displayed a Kd in assay [1] of 43.8 µM.

As for `CC(=O)N[C@H](C(=O)N1C[C@H](O)CC1C1=NC(=O)C(C)(c2ccc(-c3scnc3C)cc2)N1)C(C)(C)C` (single isomer, unassigned) [Example 102.3], on VHL Elongin B/C complex, the IC50 worked out at 43.3 µM. In assay [1], this molecule displayed an equilibrium dissociation constant (Kd) of 10.7 µM.

In turn, `Cc1cc(C(C(=O)N2C[C@H](O)CC2C2=NC(=O)C(C)(c3ccc(Br)cc3)N2)C(C)C)on1` (single isomer, unassigned) [Example 103.1] gave a half-inhibitory concentration (IC50) at VHL Elongin B/C complex of more than 400 µM. The Kd in assay [1] was more than 150 µM.

For `Cc1cc(C(C(=O)N2C[C@H](O)CC2C2=NC(=O)C(C)(c3ccc(Br)cc3)N2)C(C)C)on1` (single isomer, unassigned) [Example 103.2], the IC50 at VHL Elongin B/C complex was more than 400 µM. The molecule further yielded an equilibrium dissociation constant (Kd) in assay [1] of more than 150 µM.

On to `Cc1cc(C(C(=O)N2C[C@H](O)CC2C2=NC(=O)C(C)(c3ccc(Br)cc3)N2)C(C)C)on1` (single isomer, unassigned) [Example 103.3], for which the IC50 at VHL Elongin B/C complex came to 292 µM. In assay [1], this molecule displayed an equilibrium dissociation constant (Kd) of more than 150 µM.

Turning to `Cc1cc(C(C(=O)N2C[C@H](O)CC2C2=NC(=O)C(C)(c3ccc(Br)cc3)N2)C(C)C)on1` (single isomer, unassigned) [Example 103.4], the IC50 at VHL Elongin B/C complex came out at 6.73 µM. Also, the Kd in assay [1] is 1.09 µM.

The molecule `Cc1cc(C(C(=O)N2C[C@H](O)CC2C2=NC(=O)C(C)(c3ccc(-c4scnc4C)cc3)N2)C(C)C)on1` (single isomer, unassigned) [Example 104.1] returned an IC50 at VHL Elongin B/C complex of 203 µM. This molecule gave a Kd in assay [1] of 35.9 µM.

`Cc1cc(C(C(=O)N2C[C@H](O)CC2C2=NC(=O)C(C)(c3ccc(-c4scnc4C)cc3)N2)C(C)C)on1` (single isomer, unassigned) [Example 104.2] had an IC50 on VHL Elongin B/C complex of more than 400 µM. This molecule had an equilibrium dissociation constant (Kd) in assay [1] of more than 150 µM.

For `Cc1cc(C(C(=O)N2C[C@H](O)CC2C2=NC(=O)C(C)(c3ccc(-c4scnc4C)cc3)N2)C(C)C)on1` (single isomer, unassigned) [Example 104.3], the IC50 at VHL Elongin B/C complex came out at 230 µM. Also, the dissociation constant (Kd) in assay [1] came out at 44.6 µM.

As for `Cc1cc(C(C(=O)N2C[C@H](O)CC2C2=NC(=O)C(C)(c3ccc(-c4scnc4C)cc3)N2)C(C)C)on1` (single isomer, unassigned) [Example 104.4], the IC50 at VHL Elongin B/C complex came out at 0.422 µM. The same molecule displayed a dissociation constant (Kd) in assay [1] of 0.171 µM.

For the molecule `Cc1cc(C(C(=O)N2C[C@H](O)CC2C2=NC(=O)C(C)(c3ccc(-c4cccnc4)cc3)N2)C(C)C)on1` (single isomer, unassigned) [Example 105.1], the half-maximal inhibitory concentration (IC50) at VHL Elongin B/C complex turned out to be 375 µM. Besides, binding in assay [1] was put at a Kd of 241 µM.

`Cc1cc(C(C(=O)N2C[C@H](O)CC2C2=NC(=O)C(C)(c3ccc(-c4cccnc4)cc3)N2)C(C)C)on1` (single isomer, unassigned) [Example 105.2] registered a 50% inhibitory concentration (IC50) at VHL Elongin B/C complex of 136 µM. In assay [1], this molecule gave a Kd of 113 µM.

Regarding `Cc1cc(C(C(=O)N2C[C@H](O)CC2C2=NC(=O)C(C)(c3ccc(-c4cccnc4)cc3)N2)C(C)C)on1` (single isomer, unassigned) [Example 105.3], the half-maximal inhibitory concentration (IC50) on VHL Elongin B/C complex was more than 400 µM. This molecule also came in with a dissociation constant Kd in assay [1] of more than 150 µM.

At VHL Elongin B/C complex, `Cc1cc(C(C(=O)N2C[C@H](O)CC2C2=NC(=O)C(C)(c3ccc(-c4cccnc4)cc3)N2)C(C)C)on1` (single isomer, unassigned) [Example 105.4] had a 50% inhibitory concentration (IC50) of 5.39 µM. Besides, the Kd in assay [1] was 1.58 µM.

Turning to `Cc1cc(C(C(=O)N2C[C@H](O)CC2C2=NC(=O)C(C)(C)N2)C(C)C)on1` (single isomer, unassigned) [Example 107.1], the Kd in assay [1] is more than 150 µM.

`Cc1ncsc1-c1ccc([C@]2(C)NC(C3C[C@@H](O)CN3C(=O)[C@@H]3CCCN3S(C)(=O)=O)=NC2=O)cc1` (single isomer, unassigned) [Example 112.2]: in assay [1], binding was characterised by a dissociation constant (Kd) of 150 µM.

For `Cc1ncsc1-c1ccc([C@]2(C)NC(C3C[C@@H](O)CN3C(=O)C(c3cc(O)no3)C(C)C)=NC2=O)cc1` (single isomer, unassigned) [Example 116.2], binding in assay [1] was put at a Kd of 150 µM.

In assay [1], `Cc1ncsc1-c1ccc([C@]2(C)NC(C3C[C@@H](O)CN3C(=O)C(c3cc(O)no3)C(C)C)=NC2=O)cc1` (single isomer, unassigned) [Example 116.3] registered a dissociation constant Kd of 150 µM.

`Cc1ncsc1-c1ccc([C@]2(C)NC(C3C[C@@H](O)CN3C(=O)[C@H]3CCCN3S(C)(=O)=O)=NC2=O)cc1` (single isomer, unassigned) [Example 120.1]: in assay [1], the Kd is not below 150 µM.

`Cc1ncsc1-c1ccc([C@]2(C)NC(C3C[C@@H](O)CN3C(=O)[C@H]3CCCN3S(C)(=O)=O)=NC2=O)cc1` (single isomer, unassigned) [Example 120.2] came in with a dissociation constant (Kd) in assay [1] not below 150 µM.

For the molecule `CC(=O)N1CCC[C@H]1C(=O)N1C[C@H](O)CC1C1=NC(=O)[C@](C)(c2ccc(-c3scnc3C)cc2)N1` (single isomer, unassigned) [Example 121.2], the Kd in assay [1] is not below 150 µM.

The molecule `Cc1cc([C@@H](C(=O)N2C[C@H](O)C[C@H]2C2=NOC(C)(c3ccccc3)N2)C(C)C)on1` (single isomer, unassigned) [Example 128.1] gave a Kd in assay [1] not below 150 µM.

In turn, `Cc1cc([C@@H](C(=O)N2C[C@H](O)C[C@H]2C2=NOC(C)(c3ccccc3)N2)C(C)C)on1` (single isomer, unassigned) [Example 128.2] yielded a Kd in assay [1] not below 150 µM.

`Cc1cc([C@@H](C(=O)N2C[C@H](O)C[C@H]2C2=NOC(C)(C)N2)C(C)C)on1` [Example 126.2, (S)-1-((2S,4R)-2-(5,5-dimethyl-4,5-dihydro-1,2,4-oxadiazol-3-yl)-4-hydroxypyrrolidin-1-yl)-3-methyl-2-(3-methylisoxazol-5-yl)butan-1-one]: in assay [1], the dissociation constant Kd was not below 150 µM.

Molecule `Cc1cc([C@H](C(=O)N2C[C@H](O)C[C@H]2C(=O)NCc2ccc(-c3scnc3C)cc2OCCNC(=O)c2ccc3c(c2)C(=O)OC32c3ccc(N(C)C)cc3Oc3cc(N(C)C)ccc32)C(C)C)on1` [VHL fluorescence polarization probe, (2S,4R)—N-(2-(2-(3′,6′-bis(dimethylamino)-3-oxo-3H-spiro[isobenzofuran-1,9′-xanthene]-5-carboxamido)ethoxy)-4-(4-methylthiazol-5-yl)benzyl)-4-hydroxy-1-((R)-3-methyl-2-(3-methylisoxazol-5-yl)butanoyl)pyrrolidine-2-carboxamide, reference compound] yielded a dissociation constant (Kd) at VHL Elongin B/C complex (probe binding to VHL/Elongin B/C) of 0.0182 µM.
